Experimental data: patent US20260035387A1 (BIOGEN MA INC., priority 2022, published 2026)

What follows are compounds tested on mutant Huntington (HTT) protein (assay: HTT Mutant HTRF iPSC assay (mHTT protein lowering)). Settings: human iPSC derived from a HTT patient with a poly-Q49 mutation.
Type: cell-based

Q: `COc1c(NC(=O)c2nc3ccc(N4CCC(N5CCC5)C4)nc3s2)cn2cc(C)nc2c1F` (racemic) [Compound 126, 5-(3-(azetidin-1-yl)pyrrolidin-1-yl)-N-(8-fluoro-7-methoxy-2-methylimidazo[1,2-a]pyridin-6-yl)thiazolo[5,4-b]pyridine-2-carboxamide] was tested. Which IC50 did it give?
A: < 100 nM

Q: How did the IC50 turn out when `Cc1cn2cc(NC(=O)c3cc4ncc(C5CCC(N)CC5)nc4s3)cc(F)c2n1` (racemic) [Compound 141, 3-(4-aminocyclohexyl)-N-(8-fluoro-2-methylimidazo[1,2-a]pyridin-6-yl)thieno[2,3-b]pyrazine-6-carboxamide] was run?
A: 1000 to 9000 nM

Q: `Cc1cn2cc(NC(=O)c3cc4ncc(C5=CCCC(N)C5)nc4s3)cc(F)c2n1` (racemic) [Compound 143, 3-(5-aminocyclohex-1-en-1-yl)-N-(8-fluoro-2-methylimidazo[1,2-a]pyridin-6-yl)thieno[2,3-b]pyrazine-6-carboxamide] was tested. Which IC50 did it give?
A: 100 to 1000 nM

Q: How did the IC50 turn out when `Cc1cn2cc(NC(=O)c3cc4ncc(C5=CC(N)CCC5)nc4s3)cc(F)c2n1` (racemic) [Compound 145, 3-(3-aminocyclohex-1-en-1-yl)-N-(8-fluoro-2-methylimidazo[1,2-a]pyridin-6-yl)thieno[2,3-b]pyrazine-6-carboxamide] was run?
A: 100 to 1000 nM

Q: For `Cc1cn2cc(NC(=O)c3cc4ccc(OC5C[C@@H](C)N[C@@H](C)C5)nc4s3)cc(F)c2n1` (mixture of isomers) [Compound 156], which IC50 is on record?
A: < 100 nM

Q: Which IC50 does the source give for `Cc1cn2cc(NC(=O)c3cc4ccc(OC5CCNC(C)(C)C5)nc4s3)cc(F)c2n1` (racemic) [Compound 158, 6-((2,2-dimethylpiperidin-4-yl)oxy)-N-(8-fluoro-2-methylimidazo[1,2-a]pyridin-6-yl)thieno[2,3-b]pyridine-2-carboxamide] here?
A: < 100 nM

Q: How did the IC50 turn out when `Cc1cn2cc(NC(=O)c3cc4ccc(OC5CCN(C)C5)nc4s3)cc(F)c2n1` (racemic) [Compound 159, N-(8-fluoro-2-methylimidazo[1,2-a]pyridin-6-yl)-6-((1-methylpyrrolidin-3-yl)oxy)thieno[2,3-b]pyridine-2-carboxamide] was run?
A: < 100 nM

Q: `CCN1CCC(Oc2ccc3cc(C(=O)Nc4cc(F)c5nc(C)cn5c4)sc3n2)C1` (racemic) [Compound 161, 6-((1-ethylpyrrolidin-3-yl)oxy)-N-(8-fluoro-2-methylimidazo[1,2-a]pyridin-6-yl)thieno[2,3-b]pyridine-2-carboxamide] was tested. Which IC50 did it give?
A: < 100 nM

Q: Which IC50 does the source give for `COc1c(NC(=O)c2cc3ccc(N4CCC(N5CCC5)C4)nc3s2)cc2cn(C)nc2c1F` (racemic) [Compound 180, rac-(R)-6-(3-(azetidin-1-yl)pyrrolidin-1-yl)-N-(7-fluoro-6-methoxy-2-methyl-2H-indazol-5-yl)thieno[2,3-b]pyridine-2-carboxamide] here?
A: < 100 nM

Q: Which IC50 does the source give for `Cc1cn2cc(NC(=O)c3cc4ccc(N5CC[C@@H]6CN(C)C[C@@H]65)nc4s3)nc(C)c2n1` (racemic) [Compound 194, N-(2,8-dimethylimidazo[1,2-a]pyrazin-6-yl)-6-((3aR,6aR)-5-methylhexahydropyrrolo[3,4-b]pyrrol-1(2H)-yl)thieno[2,3-b]pyridine-2-carboxamide] here?
A: < 100 nM

Q: `Cc1cn2cc(NC(=O)c3cc4ccc(N5CCC6CNCC65)nc4s3)nc(C)c2n1` (racemic) [Compound 215, N-(2,8-dimethylimidazo[1,2-a]pyrazin-6-yl)-6-(hexahydropyrrolo[3,4-b]pyrrol-1(2H)-yl)thieno[2,3-b]pyridine-2-carboxamide] was tested. Which IC50 did it give?
A: < 100 nM

Q: With `COc1c(NC(=O)c2cc3ccc(N4CCC5(CCCN5C)C4)nc3s2)cc2cn(C)nc2c1F` (racemic) [Compound 231, N-(7-fluoro-6-methoxy-2-methyl-2H-indazol-5-yl)-6-(1-methyl-1,7-diazaspiro[4.4]nonan-7-yl)thieno[2,3-b]pyridine-2-carboxamide] as the compound, how does the IC50 read?
A: < 100 nM

Q: Which IC50 does the source give for `COc1cc2nn(C)cc2cc1NC(=O)c1cc2ccc(N[C@@H]3CC(C)(C)NC(C)(C)[C@@H]3F)nc2s1` (racemic) [Compound 260, 6-(((3R,4R)-3-fluoro-2,2,6,6-tetramethylpiperidin-4-yl)amino)-N-(6-methoxy-2-methyl-2H-indazol-5-yl)thieno[2,3-b]pyridine-2-carboxamide] here?
A: < 100 nM

Q: Which IC50 does the source give for `COc1cc2nn(C)cc2cc1NC(=O)c1cc2ccc(N[C@H]3CC(C)(C)NC(C)(C)[C@@H]3F)nc2s1` (racemic) [Compound 261, 6-(((3R,4S)-3-fluoro-2,2,6,6-tetramethylpiperidin-4-yl)amino)-N-(6-methoxy-2-methyl-2H-indazol-5-yl)thieno[2,3-b]pyridine-2-carboxamide] here?
A: < 100 nM

Q: `Cc1cn2cc(NC(=O)c3cc4ccc([C@H]5CCCNC5)nc4s3)cc(F)c2n1` (single isomer, unassigned) [Compound 81] was tested. Which IC50 did it give?
A: < 100 nM

Q: With `Cc1cn2cc(NC(=O)c3cc4ccc([C@@H]5CCCNC5)nc4s3)cc(F)c2n1` (single isomer, unassigned) [Compound 82] as the compound, how does the IC50 read?
A: < 100 nM

Q: How did the IC50 turn out when `Cc1cn2cc(NC(=O)c3nc4ccc(N5CCC6(CCN6)C5)nc4s3)cc(F)c2n1` (single isomer, unassigned) [Compound 97] was run?
A: < 100 nM

Q: How did the IC50 turn out when `Cc1cn2cc(NC(=O)c3nc4ccc(N5CCC(N6CCC6)C5)nc4s3)cc(F)c2n1` (single isomer, unassigned) [Compound 101] was run?
A: < 100 nM

Q: `Cc1cn2cc(NC(=O)c3nc4ccc(N5CCC6(CCN6)C5)nc4s3)cc(F)c2n1` (single isomer, unassigned) [Compound 111] was tested. Which IC50 did it give?
A: < 100 nM

Q: Which IC50 does the source give for `COc1c(NC(=O)c2nc3ccc(N4CCC5(CCCN5C)C4)nc3s2)cc2cn(C)nc2c1F` (single isomer, unassigned) [Compound 124] here?
A: < 100 nM

Q: With `COc1c(NC(=O)c2nc3ccc(N4CCC5(CCCN5C)C4)nc3s2)cn2cc(C)nc2c1F` (single isomer, unassigned) [Compound 127] as the compound, how does the IC50 read?
A: < 100 nM

Q: With `COc1c(NC(=O)c2nc3ccc(N4CCC5(CCCN5C)C4)nc3s2)cn2cc(C)nc2c1F` (single isomer, unassigned) [Compound 128] as the compound, how does the IC50 read?
A: < 100 nM

Q: `COc1cc(NC(=O)c2cc3nc(N4CCC5(CCCN5C)C4)ccc3o2)cn2cc(C)nc12` (single isomer, unassigned) [Compound 174] was tested. Which IC50 did it give?
A: < 100 nM

Q: `COc1cn2nc(C)cc2cc1NC(=O)c1cc2nc(N3CCC4(CCCN4C)C3)ccc2o1` (single isomer, unassigned) [Compound 175] was tested. Which IC50 did it give?
A: < 100 nM

Q: `COc1cc2nn(C)cc2cc1NC(=O)c1cc2ccc(C3CCN(C)C3)nc2s1` (single isomer, unassigned) [Compound 177] was tested. Which IC50 did it give?
A: < 100 nM

Q: `Cc1cn2cc(NC(=O)c3cc4ccc(C5CCN(C)C5)nc4s3)cc(F)c2n1` (single isomer, unassigned) [Compound 181] was tested. Which IC50 did it give?
A: < 100 nM

Q: With `COc1cc2nn(C)cc2cc1NC(=O)c1cc2ccc(C3CCCN(C)C3)nc2s1` (single isomer, unassigned) [Compound 185] as the compound, how does the IC50 read?
A: < 100 nM

Q: For `COc1cc2nn(C)cc2cc1NC(=O)c1cc2ccc(C3CCCN(C)C3)nc2s1` (single isomer, unassigned) [Compound 186], which IC50 is on record?
A: < 100 nM

Q: For `Cc1cn2cc(NC(=O)c3cc4ccc(C5CCCN(C)C5)nc4s3)nc(C)c2n1` (single isomer, unassigned) [Compound 187], which IC50 is on record?
A: 100 to 1000 nM

Q: For `COc1nc(NC(=O)c2cc3ccc(N4CCC(N(C)C)C4)nc3s2)cn2cc(C)nc12` (single isomer, unassigned) [Compound 198], which IC50 is on record?
A: < 100 nM

Q: How did the IC50 turn out when `COc1nc(NC(=O)c2cc3ccc(N4CCC(N(C)C)C4)nc3s2)cn2cc(C)nc12` (single isomer, unassigned) [Compound 199] was run?
A: < 100 nM

Q: Which IC50 does the source give for `COc1cn2nc(C)cc2cc1NC(=O)c1cc2ccc(N3CCC(N(C)C)C3)nc2s1` (single isomer, unassigned) [Compound 205] here?
A: < 100 nM

Q: With `COc1cn2nc(C)cc2cc1NC(=O)c1cc2ccc(N3CCC(N(C)C)C3)nc2s1` (single isomer, unassigned) [Compound 206] as the compound, how does the IC50 read?
A: < 100 nM

Q: Which IC50 does the source give for `Cc1cn2cc(NC(=O)c3cc4ccc(N5CCC(NCC6CC6)C5)nc4s3)cc(F)c2n1` (single isomer, unassigned) [Compound 210] here?
A: < 100 nM

Q: How did the IC50 turn out when `CCNC1CCN(c2ccc3cc(C(=O)Nc4cc5cc(C)nn5cc4OC)sc3n2)C1` (single isomer, unassigned) [Compound 212] was run?
A: < 100 nM

Q: `CCNC1CCN(c2ccc3cc(C(=O)Nc4cc5cc(C)nn5cc4OC)sc3n2)C1` (single isomer, unassigned) [Compound 213] was tested. Which IC50 did it give?
A: < 100 nM

Q: For `COc1cc2nn(C)cc2cc1NC(=O)c1cc2ccc(N3CC[C@]4(CCCN4C)C3)nc2s1` (single isomer, unassigned) [Compound 222], which IC50 is on record?
A: < 100 nM

Q: How did the IC50 turn out when `COc1cc2nn(C)cc2cc1NC(=O)c1cc2ccc(N3CC[C@@]4(CCCN4C)C3)nc2s1` (single isomer, unassigned) [Compound 223] was run?
A: < 100 nM

Q: With `COc1cn2nc(C)cc2cc1NC(=O)c1cc2ccc(N3CCC4(CCCN4C)C3)nc2s1` (single isomer, unassigned) [Compound 224] as the compound, how does the IC50 read?
A: < 100 nM

Q: For `COc1cn2nc(C)cc2cc1NC(=O)c1cc2ccc(N3CCC4(CCCN4C)C3)nc2s1` (single isomer, unassigned) [Compound 225], which IC50 is on record?
A: < 100 nM

Q: With `COc1c(NC(=O)c2cc3ccc(N4CCC5(CCCN5C)C4)nc3s2)cn2cc(C)nc2c1F` (single isomer, unassigned) [Compound 239] as the compound, how does the IC50 read?
A: < 100 nM

Q: How did the IC50 turn out when `COc1cc2nn(C)cc2cc1NC(=O)c1cc2ccc(N3CC[C@@H](N(C)C)C3)nc2s1` (single isomer, unassigned) [Compound 241] was run?
A: < 100 nM

Q: `COc1c(NC(=O)c2cc3ccc(N4CCC5(CCCN5C)C4)nc3s2)cn2cc(C)nc2c1F` (single isomer, unassigned) [Compound 242] was tested. Which IC50 did it give?
A: < 100 nM

Q: `COc1cc2nn(C)cc2cc1NC(=O)c1cc2ccc(N3CCC(N(C)C)C3)nc2s1` (single isomer, unassigned) [Compound 244] was tested. Which IC50 did it give?
A: < 100 nM

Q: With `COc1cc2nc(C)cn2cc1NC(=O)c1cc2ccc(N3CC[C@]4(CCCN4C)C3)nc2s1` (single isomer, unassigned) [Compound 251] as the compound, how does the IC50 read?
A: 100 to 1000 nM

Q: For `COc1cc2nc(C)cn2cc1NC(=O)c1cc2ccc(N3CC[C@@]4(CCCN4C)C3)nc2s1` (single isomer, unassigned) [Compound 252], which IC50 is on record?
A: < 100 nM

Q: Which IC50 does the source give for `Cc1cn2cc(NC(=O)c3cc4ccc(N5CC[C@@]6(CCCN6C)C5)nc4s3)nc(C(F)F)c2n1` (single isomer, unassigned) [Compound 254] here?
A: < 100 nM
